# Marks after values point to notes of the source that are not given here.
# How the values were obtained:
# Assay type in all cases: physicochemical
# [1] = Particle size distribution before and after drying (Sympatec HELOS, dry dispersion RODOS)
# Procedure: The particle size distribution in Table I was measured with a Sympatec HELOS (H0445), dry dispersion system (RODOS), pressure 2 bar.
# [2] = Particle size development during crystallization with wet milling and temperature cycles (Example 1)
# Procedure: In a sulfonation flask with a blade mixer and a heating/cooling bath 30 g of lactose monohydrate are dissolved in 100 g of water at 62° C. A rotor-stator dispersing apparatus (Ultra Turrax, T25 basic, with S25N-25F) is operated with a rotation speed of 12000 to 22000 rpm to prepare the solution. Then 300 g of ethanol are added. After 1 to 2 minutes crystallization begins at 25 to 35° C. The Ultra Turrax is operated for an additional 10 minutes and then is shut off.
# The starting suspension obtained is heated at 50° C. and subsequently cooled within an interval of 1 hour at 20° C. This procedure is repeated still twice more.
# [3] = Particle size distribution of spray-dried microcrystals (Example 2); details: Example 2, microcrystals spray-dried from ethanol suspension
# Procedure: (§1) Subsequently the suspension obtained in example 1 is filtered by means of a frit and washed with 100 ml of ethanol. The filter cake is suspended in 300 ml ethanol. The suspension is spray-dried under the following conditions in a laboratory spray-drier with two nozzles (2 mm) (QVF/Yamato):
# (§2) Microcrystals are obtained in a separating filter of the spray-drier with the following particle size distribution: […]
# [4] = Moisture content of spray-dried microcrystals (Example 2); details: Example 2, microcrystals spray-dried from ethanol suspension
# Procedure: as §1, §2
# [5] = Suspension, 7 percent by weight lactose monohydrate in EtOH/water 75/25 (w/w), before drying
# [6] = Example 1, 1st Cycle (heated at 50° C., cooled to 20° C. within 1 hour)
smiles,measurement,setting,value
O.OC[C@H]1O[C@@H](O[C@H]2[C@H](O)[C@@H](O)C(O)O[C@@H]2CO)[C@H](O)[C@@H](O)[C@H]1O (stereo partly drawn) [lactose monohydrate],X10 particle diameter,"[1]; After spray-drying, dry powder",2.25 μm
same,X50 particle diameter,"[1]; After spray-drying, dry powder",6.0 μm
same,X100 particle diameter,"[1]; After spray-drying, dry powder",43 μm
same,X10 particle diameter,[1]; [5],2.11*** μm
same,X50 particle diameter,[1]; [5],5.9 μm
same,X100 particle diameter,[1]; [5],43 μm
same,X50,[2]; [6],5 μm
same,X100,[2]; [6],43 μm
same,X50,"[2]; Example 1, 2nd Cycle",5.5 μm
same,X100,"[2]; Example 1, 2nd Cycle",43 μm
same,X50,"[2]; Example 1, 3rd Cycle",6 μm
same,X100,"[2]; Example 1, 3rd Cycle",43 μm
same,X50,"[2]; Example 1, Starting Suspension",3 μm
same,X100,"[2]; Example 1, Starting Suspension",30 μm
same,Particle size X10,[3],2.5 μm
same,Particle size X50,[3],5.9 μm
same,Particle size X100,[3],43 μm
same,Moisture content,[4],4.5%
